# Assay results as given in the supplement of paper PMC11451515.
# Test system: P12-Ichikawa
# Test: cell viability relative to DMSO control; higher = less cytotoxic
# Settings: 48 h
# Procedure, shortened: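 Viability, reported as a per-plate percentage of DMSO wells with cell-free wells as background, came from CellTiter-Glo One luminescence. Reading took place after 48 h at 37°C. Before that, NOMO1 or SEM (500 cells/well) or P12-Ichikawa (1000 cells/well) leukemia cells, adapted for at least four passages in each medium, were seeded in 1536-well plates (5 μl) and pin-dosed with library compounds in DMSO, 47 μM to 0.79 nM over 11 threefold points.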
# [1] = HPLM + 10% dialyzed FBS, 0.000781 µM
# [2] = HPLM + 10% dialyzed FBS, 0.00234 µM
# [3] = HPLM + 10% dialyzed FBS, 0.00702 µM
# [4] = HPLM + 10% dialyzed FBS, 0.0211 µM
# [5] = HPLM + 10% dialyzed FBS, 0.0632 µM
# [6] = HPLM + 10% dialyzed FBS, 0.19 µM
# [7] = HPLM + 10% dialyzed FBS, 0.569 µM
# [8] = HPLM + 10% dialyzed FBS, 1.71 µM
# [9] = HPLM + 10% dialyzed FBS, 5.12 µM
# [10] = HPLM + 10% dialyzed FBS, 15.4 µM
# [11] = HPLM + 10% dialyzed FBS, 46.1 µM
# [12] = RPMI 5 mM glucose + 10% FBS, 0.000781 µM
# [13] = RPMI 5 mM glucose + 10% FBS, 0.00234 µM
# [14] = RPMI 5 mM glucose + 10% FBS, 0.00702 µM
# [15] = RPMI 5 mM glucose + 10% FBS, 0.0211 µM
# [16] = RPMI 5 mM glucose + 10% FBS, 0.0632 µM
# [17] = RPMI 5 mM glucose + 10% FBS, 0.19 µM
# [18] = RPMI 5 mM glucose + 10% FBS, 0.569 µM
# [19] = RPMI 5 mM glucose + 10% FBS, 1.71 µM
# [20] = RPMI 5 mM glucose + 10% FBS, 5.12 µM
# [21] = RPMI 5 mM glucose + 10% FBS, 15.4 µM
# [22] = RPMI 5 mM glucose + 10% FBS, 46.1 µM
# [23] = RPMI 5 mM glucose + 10% dialyzed FBS, 0.000781 µM
# [24] = RPMI 5 mM glucose + 10% dialyzed FBS, 0.00234 µM
# [25] = RPMI 5 mM glucose + 10% dialyzed FBS, 0.00702 µM
# [26] = RPMI 5 mM glucose + 10% dialyzed FBS, 0.0211 µM
# [27] = RPMI 5 mM glucose + 10% dialyzed FBS, 0.0632 µM
# [28] = RPMI 5 mM glucose + 10% dialyzed FBS, 0.19 µM
# [29] = RPMI 5 mM glucose + 10% dialyzed FBS, 0.569 µM
# [30] = RPMI 5 mM glucose + 10% dialyzed FBS, 1.71 µM
# [31] = RPMI 5 mM glucose + 10% dialyzed FBS, 5.12 µM
# [32] = RPMI 5 mM glucose + 10% dialyzed FBS, 15.4 µM
# [33] = RPMI 5 mM glucose + 10% dialyzed FBS, 46.1 µM
SMILES,cell viability [1],cell viability [2],cell viability [3],cell viability [4],cell viability [5],cell viability [6],cell viability [7],cell viability [8],cell viability [9],cell viability [10],cell viability [11],cell viability [12],cell viability [13],cell viability [14],cell viability [15],cell viability [16],cell viability [17],cell viability [18],cell viability [19],cell viability [20],cell viability [21],cell viability [22],cell viability [23],cell viability [24],cell viability [25],cell viability [26],cell viability [27],cell viability [28],cell viability [29],cell viability [30],cell viability [31],cell viability [32],cell viability [33]
CC12CC3CC(C)(C1)CC(N)(C3)C2,122%,119%,115%,115%,129%,130%,124%,122%,117%,89.8%,58.9%,109%,118%,117%,120%,138%,122%,131%,130%,123%,112%,78.4%,110%,115%,116%,117%,129%,117%,125%,127%,115%,109%,89.7%
Cc1csc(-c2nnc(Nc3ccc(Oc4ncccc4-c4ccnc(N)n4)cc3)c3ccccc23)c1,107%,111%,104%,15.1%,16.6%,14.6%,19.1%,23.2%,20.1%,18.7%,22%,104%,116%,106%,22.3%,20.1%,16.7%,20.3%,26.5%,26.4%,24.3%,24.9%,117%,109%,108%,27.8%,24.8%,27.1%,34.4%,39.9%,43.5%,39.6%,38.1%
O=P(O)(O)C(O)(Cn1ccnc1)P(=O)(O)O,97.2%,111%,64%,114%,111%,122%,121%,119%,125%,112%,117%,109%,122%,70.9%,126%,131%,134%,136%,137%,137%,136%,125%,101%,108%,67.8%,111%,114%,120%,116%,114%,112%,122%,118%
COc1c(C)c2c(c(O)c1C/C=C(\C)CCC(=O)O)C(=O)OC2,108%,107%,111%,109%,113%,109%,103%,99.1%,90.5%,50.2%,38.2%,108%,110%,106%,104%,112%,104%,104%,85%,60.9%,36.7%,23%,103%,97.8%,95.3%,100%,104%,97.6%,103%,82%,64%,39.7%,28.7%
COc1ccc2c(c1)[C@]13CCCCC1C(C2)N(C)CC3 (some centres undefined),107%,118%,114%,116%,116%,122%,124%,126%,113%,127%,117%,111%,127%,119%,124%,128%,129%,134%,118%,133%,128%,107%,106%,112%,119%,120%,121%,117%,126%,122%,119%,122%,20.9%
CC(C)(O)CC(=O)NCCn1ccc2ncnc(Nc3ccc(Oc4cccc(C(F)(F)F)c4)c(Cl)c3)c21,120%,115%,116%,112%,111%,109%,108%,102%,87.2%,69.5%,60.7%,110%,107%,121%,114%,121%,105%,107%,111%,93.3%,75.6%,52%,104%,113%,117%,109%,115%,113%,110%,106%,95.8%,69.1%,47.4%
O=C(O)c1cccnc1Nc1cccc(C(F)(F)F)c1,112%,111%,111%,118%,119%,128%,112%,131%,129%,129%,124%,115%,117%,113%,120%,124%,143%,129%,132%,141%,138%,108%,104%,108%,115%,112%,112%,119%,115%,113%,121%,131%,117%
COc1ccc(C(=O)c2c(C)n(CCN3CCOCC3)c3cc(I)ccc23)cc1,106%,113%,113%,124%,124%,121%,119%,120%,39.7%,13.7%,9.27%,115%,121%,128%,122%,129%,124%,133%,130%,41.6%,14.3%,12.3%,102%,110%,130%,118%,129%,134%,131%,126%,94.2%,32.8%,14.9%
